One assay deals with Listeria monocytogenes. The settings on record: 1000 ppm, pH 4.0. The source says:
(§1) To determine ascertain bactericidal and fungicidal qualities of the present food preservative solution, certain embodiments containing a combination of phenylacrylic acid, sorbic acid, a potentiation agent and a stabilization agent were subjected to a modified version of the United States Pharmocopedia (USP) antimicrobial efficacy test found in chapter 51 of the USP 40 manual. All embodiments were between pH 3.95-4.05.
(§2) To each of the embodiments, 1×10^6 cells from the following spoilage organisms; Escheria coli, Listeria monocytogenes, Salmonella entericia, Aspergillus flavus, Aspergillus brasiliensis, and Zygosaccharomyces bailii. The microbials were homogeneously dispersed in the various embodiments. Small aliquots are taken from the inoculated samples at the appropriate time point is serial diluted and plated. The plates are incubated, and growth is then enumerated. The counts are multiplied by the appropriate dilution factor to give a viable cell count at that time point.

In a further assay the test system is Aspergillus flavus. To be noted: 1000 ppm, pH 4.0.
From the text: as §1, §2

The next assay relates to Escheria coli. To be noted: 1000 ppm, pH 4.0.
From the text: as §1, §2

For a further assay, the system named is Salmonella entericia. The settings on record: 1000 ppm, pH 4.0.
From the text: as §1, §2

A further assay has as its system Aspergillus brasiliensis. To be noted: 1000 ppm, pH 4.0.
From the text: as §1, §2

A further assay deals with Zygosaccharomyces bailii. The settings on record: 1000 ppm, pH 4.0.
From the text: as §1, §2

The test system of assay [1] is Saccharomyces cerevisiae, Candida parapsilosis, Zygosaccharomyces rouxii, and Zygosaccharomyces bailii. Briefly: Experimental Test 3, summary statements over the yeast species. It counts as cell-based. To be noted: Tables 12-15; pH 3.1-7.5. The protocol: The media was then sterilized by steam autoclaving the solution for 15 minutes at 121° C. and the media was placed into 3 96 cell plates and pH using either 0.1N HCl or 0.1N NaOH to pH values of 3.1, 5.6, 6.0, 6.5, 7.0, and 7.5.
Three exemplary embodiment solutions were added and serial diluted into a series of treatment wells and 0.5 McFarland Standard's worth of yeast cells were added to each well. The plates were incubated at 32° C. for 48 hours and then the OD was read at 600 nm. The percent inhibition was graphed as a percentage of the following formula indicated in Equation 1.

The record followed here is patent US20200029601A1, “PHENYLACRYLIC ACID SOLUTION FOR BROAD SPECTRUM ANTIMICROBIAL APPLICATIONS FOR FOODSTUFFS” (KLF LABS LLC, priority 2018, published 2020).

Like-named read-outs stand apart in the source and are kept apart here. Where only a bound is given, the exact number is not on record here.

Consider `CC=CC=CC(=O)O` [Sorbic Acid, 2,4 hexadienoic acid], for which the Microbial plate count is listed as 620000 CFU/g in the assay with Listeria monocytogenes (Test Day 0); less than 10 CFU/g in the assay with Listeria monocytogenes (Test Day 0.5); less than 10 CFU/g with Listeria monocytogenes (Test Day 1); less than 10 CFU/g in the assay on Listeria monocytogenes (Test Day 3); less than 10 CFU/g in the assay on Listeria monocytogenes (Test Day 7); 510000 CFU/g in the assay on Aspergillus flavus (Test Day 0). Moreover, the Microbial plate count is reported as 8500 CFU/g in the assay with Aspergillus flavus (Test Day 0.5); less than 10 CFU/g with Aspergillus flavus (Test Day 1); less than 10 CFU/g in the assay on Aspergillus flavus (Test Day 3); less than 10 CFU/g in the assay on Aspergillus flavus (Test Day 7); 580000 CFU/g in the assay on Escheria coli (Test Day 0); less than 10 CFU/g with Escheria coli (Test Day 0.5). In addition, the Microbial plate count is less than 10 CFU/g with Escheria coli (Test Day 1); less than 10 CFU/g with Escheria coli (Test Day 3); less than 10 CFU/g in the assay with Escheria coli (Test Day 7); 800000 CFU/g in the assay on Salmonella entericia (Test Day 0); less than 10 CFU/g in the assay on Salmonella entericia (Test Day 0.5); less than 10 CFU/g in the assay on Salmonella entericia (Test Day 1). Also, the Microbial plate count in the assay with Salmonella entericia (Test Day 3) is less than 10 CFU/g; with Salmonella entericia (Test Day 7) it was less than 10 CFU/g; with Aspergillus brasiliensis (Test Day 0), 630000 CFU/g; in the assay with Aspergillus brasiliensis (Test Day 0.5), 230000 CFU/g; in the assay on Aspergillus brasiliensis (Test Day 1) it was 520 CFU/g; in the assay with Aspergillus brasiliensis (Test Day 3), less than 10 CFU/g. Also, the Microbial plate count in the assay on Aspergillus brasiliensis (Test Day 7) was less than 10 CFU/g; in the assay with Zygosaccharomyces bailii (Test Day 0), 480000 CFU/g; in the assay with Zygosaccharomyces bailii (Test Day 0.5), 130000 CFU/g; in the assay with Zygosaccharomyces bailii (Test Day 1) it was 1600 CFU/g; in the assay on Zygosaccharomyces bailii (Test Day 3) it was 120 CFU/g; in the assay on Zygosaccharomyces bailii (Test Day 7), less than 10 CFU/g.
For `O=C(O)C(O)c1ccccc1` (stereo not shown) [mandelic acid], in assay [1], the “increase of the efficacy of potassium sorbate by addition of mandelic acid” value is listed as 2-10 ×.
